Our source for the TGI and GI50 values is PubChem BioAssay (NCI).

Assay in all cases: inhibition of tumour cell growth, NCI panel, 48 h
Test [1] concerns 786-0 renal.
The subject of test [2] is HCC-2998 colon.
In test [3] the test system is HCT-15 colon.
For test [4], the system named is HOP-62 NSCLC.
Test [5] has as its system LOX IMVI melanoma.
The test system of test [6] is MALME-3M melanoma.
Test [7] concerns MDA-MB-231 breast.
Test [8] concerns U251 CNS.
For test [9], the system named is HL-60(TB) leukemia.
Test [10] relates to HS 578T breast.

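Tested at 5 concentrations; 48 h exposure; 96-well plates; endpoints linearly interpolated, else capped at highest concentration. GI50: concentration for 50% inhibition of growth. Definition used: TGI = concentration required for complete inhibition of growth.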

Regarding `COc1ccc(O[C@H](CO)C[C@@H]2COC(C)(C)O2)cc1`, the TGI in test [1], in test [2], in test [3], in test [4], in [5] and in test [6] was above 100 µM throughout. For the same molecule, the TGI in test [7] and in test [8] was above 100 µM in each case.
`CC(=O)c1c(-c2ccc(Cl)cc2)c(C#N)c(=S)n(C2OC(CO)C(O)C(O)C2O)c1C` (centres undefined): the TGI in test [1] is above 100 µM; in test [2] it was above 100 µM; in test [3], above 100 µM; in test [9] it was 54 µM; in test [4], above 100 µM; in [5] it was above 100 µM. The TGI in test [6], in [7] and in test [8] was above 100 µM each time.
As for `CN1C(c2ccccc2)CC(O)CC1c1ccccc1` (centres undefined), the TGI in test [1], in test [3], in [9], in [4], in [5] and in [6] was above 100 µM in each case. In addition, the TGI in test [8] is above 100 µM.
In the case of `CC[C@]1(c2ccc3c(c2)OCO3)C=[N+]([O-])O[C@H](OC2CCCC2(c2ccccc2)c2ccccc2)[C@@H]1OC(C)=O` (some centres undefined), the TGI in test [1] was 3.77 µM; in [2], 4.05 µM; in [3] it was 6.18 µM; in test [9], 12.1 µM; in test [4], 5.38 µM; in [10], above 100 µM. Moreover, the results for the TGI in test [5], in test [7] and in test [8] were above 22.4 µM, above 21.7 µM and above 62.6 µM, respectively.
For `CN(Cc1cnc2nc(N)nc(N)c2n1)c1ccc(C(=O)NC(CCC(=O)O)C(=O)O)c2ccccc12` (centres undefined), the TGI in test [1], in test [3], in [9], in test [10], in test [5] and in test [6] was above 1000 µM throughout. In addition, the TGI in test [7] and in [8] was above 1000 µM throughout. The GI50 was below 24.4 nM in [4]; above 1000 µM in [10]; above 1 mM in test [6]; above 1000 µM in test [7]; 293 µM in test [8].
For `O=[N+]([O-])/C=C/c1cc(Cl)c(/C=C/[N+](=O)[O-])cc1Cl`, the TGI in [2] turned out to be 3.99 µM; in test [3], 4.19 µM; in [4], 31.8 µM; in test [10], 8.25 µM; in [5], 2.99 µM.
On to `Cc1ccc(S(=O)(=O)NC(=O)Nc2ccc(C(=O)O)cc2)cc1`, for which the TGI in test [1], in [3], in test [9], in test [4], in test [10] and in test [5] was above 100 µM each time. Besides, the TGI in test [6], in test [7] and in test [8] was above 100 µM in each case.
Consider `O=C(O)C1CCC(=O)N1C(=O)COc1cc(Cl)c(Cl)cc1Cl` (centres undefined), for which the TGI in test [3], in test [5] and in test [8] was above 100 µM in each case.
On to `COc1ccc2oc(=O)c(-c3cc4c(c(C)n3)c(=O)oc3ccc(OC)cc34)cc2c1`, for which the TGI was 4.34 µM in test [1]; above 100 µM in [2]; above 100 µM in test [3]; above 100 µM in test [9]; above 100 µM in test [4]; 83.5 µM in test [10]. Further, the TGI in test [5], in [7] and in test [8] was above 100 µM throughout.
Regarding `CC(C)(NO)/C(=N\O)c1ccccc1`, the TGI in test [1], in test [2], in [3], in test [9], in test [4] and in test [6] was above 10 µM throughout. The TGI in [7] and in [8] was above 10 µM throughout.
`CC(=O)O[C@H]1CC[C@@H](OC(C)=O)[C@H]2[C@H](O)[C@H](O)[C@@H]1n1c(=O)n(-c3ccccc3)c(=O)n12`: the TGI in [1], in [3], in test [9], in [4], in test [10] and in [5] was above 100 µM each time. For the same molecule, the TGI in [6], in test [7] and in [8] was above 100 µM each time.
In the case of `Cn1c2c(c3c(=O)[nH]ncc31)Cc1ccccc1-2`, the TGI was 51 µM in [1]; above 100 µM in test [3]; 69 µM in [9]; above 100 µM in test [4]; above 100 µM in test [10]; 75.1 µM in [5]. The TGI in test [6] came out at 44.5 µM; in [7], 98.2 µM; in test [8], 85.8 µM.
On to `CCCCCCCCCCCCOCC(COP(=O)(O)OCCN=[N+]=[N-])OC(=O)CCCCCCCCCCC` (centres undefined), for which the TGI in test [1], in test [2], in test [3], in [4], in test [6] and in test [7] was above 100 µM each time. The molecule also had a TGI in test [8] above 100 µM.
Consider `COCOC1CCCC[C@@]1(OCCOCCO[C@@]1(c2ccccc2)CCCC[C@H]1OCOC)c1ccccc1` (some centres undefined), for which the TGI in [1], in test [2], in test [9], in test [4], in test [5] and in [6] was above 100 µM throughout. In addition, the TGI in test [8] is above 100 µM.
As to `CCOC(=O)N1CCNCCN(C(=O)OCC)CCNCC1`, the TGI in [1], in test [2], in [3], in test [9], in test [4] and in test [10] was above 100 µM in each case. Further, the TGI in test [5], in test [7] and in [8] was above 100 µM throughout.
For the molecule `COc1cc(C2c3cc4c(cc3[C@@H](Nc3ccc(F)cc3)C3COC[C@H]23)OCO4)cc(OC)c1O` (some centres undefined), the TGI in [1] was 6.35 µM; in [2] it was above 25 µM; in test [3], 18.9 µM; in test [9], 2.29 µM; in [4], above 25 µM; in test [10], 4.21 µM. The figures for the TGI in test [7] and in [8] were 15.1 µM and 18 µM, respectively.
For the molecule `COc1ccc(/C(C=O)=C(\Cl)c2ccc(OC)c(OC)c2)cc1`, the TGI in [2], in [3], in test [9], in test [4], in test [5] and in test [6] was above 100 µM each time. In [8], this molecule returned a TGI above 100 µM.
With `NCCCNc1nc2ccccc2c2c(=O)c3cc(Cl)ccc3sc12`, in test [10], the GI50 is 2.01 µM and the TGI turned out to be 5.24 µM. Further, in test [7], the GI50 is 1.34 µM and the TGI came to 2.69 µM.
On to `Cc1cc2nc(N3C(=O)/C(=C/Cc4ccco4)N=C3c3ccccc3)sc2cc1C`, for which the TGI in test [1] is 96.6 µM; in test [2] it was 55.7 µM; in test [3], above 100 µM; in test [9] it was 46.1 µM; in test [4] it was above 100 µM; in test [10], above 100 µM. Further, the TGI in test [5], in test [7] and in test [8] was above 100 µM in each case.
Consider `COC(=O)c1c(O)ccc2c1c1c(n2Cc2ccc(OC)cc2)C(=O)c2ccccc2C1`, for which the TGI in test [1], in [3], in test [9], in test [4], in [10] and in test [5] was above 100 µM in each case. The TGI in [6], in test [7] and in [8] was above 100 µM in each case.
Turning to `COc1cccc(/C=N/[N-]C(N)=O)c1[O-].[Cu+2].[OH3+]`, the TGI in [1] was 30.3 µM; in test [2], 31 µM; in [3], 27.2 µM; in [9], above 100 µM; in test [4], 44.3 µM; in test [5], 30.6 µM. Further, the TGI turned out to be 28.8 µM in [6] and 19.7 µM in test [8]. Besides, the GI50 was 10.8 µM in [9] and 7.38 µM in test [8].
Regarding `O=c1c2[nH]cnc2n(-c2ccccc2)c(=S)n1-c1ccccc1`, the TGI in test [1], in [2], in test [3], in test [9], in test [4] and in [5] was above 100 µM each time. For the same molecule, the TGI in test [7] and in test [8] was above 100 µM each time.
For the molecule `NC1CCC2(O)c3ccccc3C2C1` (centres undefined), the TGI in test [1], in [3], in test [9], in test [4], in test [5] and in [6] was above 100 µM throughout. The same molecule displayed a TGI in [8] above 100 µM.
For `O=C(/C=C/c1ccccc1)c1cc(CN2CCOCC2)c(O)c(CN2CCOCC2)c1`, the TGI in [1] was 29 µM; in test [2], 33.7 µM; in [3], 29.7 µM; in [9] it was 27.4 µM; in test [4] it was 39.3 µM; in test [10] it was above 100 µM. Moreover, the values for the TGI in test [5], in test [7] and in test [8] were 19.5 µM, 32.7 µM and 16.3 µM, respectively.
Consider `COC(=O)Nc1cc(OCCCOC(C)=O)c2[nH]c(C(=O)OC)cc2c1C[C@H](O)CO`, for which the TGI in [1], in [2], in test [3], in [9], in test [4] and in [5] was above 100 µM each time. Besides, the TGI in [7] and in test [8] was above 100 µM each time.
Turning to `CCOC(=O)CNC(=O)c1[nH]cnc1/N=N/N(C)C`, the TGI in test [1], in test [2], in [3], in [9], in test [4] and in test [5] was above 100 µM each time. Further, the TGI in [6] and in test [8] was above 100 µM each time.
As to `COc1c(OC2OC(CO)C(O)C(O)C2O)cc2c(c1OC)-c1ccc(OC)c(=O)cc1C(NC(C)=O)CC2` (centres undefined), the TGI in test [1], in test [2], in test [3], in test [9], in [4] and in test [5] was above 100 µM in each case. Besides, the TGI in test [6] and in test [8] was above 100 µM in each case.
In the case of `O=C(/C=C\c1ccccc1)Oc1ccc(/C=C2\CCC/C(=C\c3ccc(OC(=O)/C=C\c4ccccc4)cc3)C2=O)cc1`, the TGI in [1], in test [2], in test [3], in test [9], in [4] and in [10] was above 100 µM in each case. The TGI in [5], in [7] and in test [8] was above 100 µM throughout.
For the molecule `C/C(CCN(C)C)=N/O`, the TGI in [1] worked out at 13.2 µM; in [2] it was 25.2 µM; in [3], 25.1 µM; in test [9], 13.5 µM; in test [4] it was 57 µM; in [5] it was 16.3 µM. The TGI in [6] is 10.8 µM; in test [8], 14.6 µM.
With `CCOC(=O)C(Cc1ccc(N=NN(C)C)cc1)NC(=O)CC1c2ccccc2-c2ccccc21` (centres undefined), the TGI in test [1], in test [2], in test [3], in test [9], in test [4] and in test [5] was above 100 µM each time. Moreover, the TGI in test [6] and in test [8] was above 100 µM each time.
As for `C=CCOC(C)(C)C1=CCC(C)CC1` (centres undefined), the TGI in test [1], in test [2], in test [3], in [9], in [4] and in test [10] was above 100 µM throughout. Besides, the TGI in [6] and in [8] was above 100 µM throughout.
